Laboratory results from ChEMBL document CHEMBL1201862, “PubChem BioAssay data set” (2004).
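Compound exposure: 48 hours, 5 concentrations, 96-well plates. Here, GI50 denotes the concentration required for 50% inhibition of growth.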 Calls of active or inactive are those of the source. Rule as the data show it: active = GI50 up to about 1.1 µM and inactive = higher.

Tests used:
Assay in all cases: NCI-60 cell line screen, 48 h
SNB-75 = system: SNB-75
ACHN = system: ACHN
CAKI-1 = system: CAKI-1
SNB-19 = system: SNB-19
HCT-15 = system: HCT-15
HOP-92 = system: HOP-92
MOLT-4 = system: MOLT-4
Hs-578T = system: Hs-578T
HL-60 = system: HL-60
NCI/ADR-RES = system: NCI/ADR-RES
OVCAR-8 = system: OVCAR-8
SF-295 = system: SF-295
M14 = system: M14
T47D = system: T47D
OVCAR-4 = system: OVCAR-4
NCI-H460 = system: NCI-H460
NCI-H522 = system: NCI-H522
SF-268 = system: SF-268
PC-3 = system: PC-3
NCI-H23 = system: NCI-H23

Structure (SMILES)	GI50 (SNB-75)	GI50 (ACHN)	GI50 (CAKI-1)	GI50 (SNB-19)	GI50 (HCT-15)	GI50 (HOP-92)	GI50 (MOLT-4)	GI50 (Hs-578T)	GI50 (HL-60)	GI50 (NCI/ADR-RES)	GI50 (OVCAR-8)	GI50 (SF-295)	GI50 (M14)	GI50 (T47D)	GI50 (OVCAR-4)	GI50 (NCI-H460)	GI50 (NCI-H522)	GI50 (SF-268)	GI50 (PC-3)	GI50 (NCI-H23)
CN(C)CCCN1c2ccccc2Sc2cnccc21	> 100 µM (inactive)	52.8 µM (inactive)	63.1 µM (inactive)	> 100 µM (inactive)	> 100 µM	61 µM (inactive)	60 µM (inactive)	> 100 µM (inactive)	74 µM (inactive)	> 100 µM (inactive)	> 100 µM (inactive)	35.1 µM (inactive)	52.2 µM (inactive)	> 100 µM (inactive)	93.8 µM (inactive)	32.1 µM (inactive)	65 µM (inactive)	> 100 µM (inactive)	> 100 µM (inactive)	–
CC(=O)c1ccc2c(c1)CC1(C2)Cc2cc3c(cc2C1)C(=O)CC3 (stereo not drawn)	32 µM (inactive)	3.07 µM (inactive)	2.03 µM (inactive)	1.67 µM (inactive)	1.08 µM	4.21 µM (inactive)	–	5.73 µM (inactive)	0.76 µM (active)	1.57 µM (inactive)	3.49 µM (inactive)	0.594 µM (active)	2 µM (inactive)	3.33 µM (inactive)	2.55 µM (inactive)	0.453 µM (active)	1.93 µM (inactive)	3.15 µM (inactive)	3.13 µM (inactive)	3.06 µM (inactive)
CCN(C(=O)/C=C/c1ccco1)c1ccccc1	> 100 µM (inactive)	> 100 µM (inactive)	> 100 µM (inactive)	> 100 µM (inactive)	> 100 µM	> 100 µM (inactive)	53.8 µM (inactive)	> 100 µM (inactive)	21.9 µM (inactive)	> 100 µM (inactive)	> 100 µM (inactive)	> 100 µM (inactive)	> 100 µM (inactive)	> 100 µM (inactive)	> 100 µM (inactive)	> 100 µM (inactive)	> 100 µM (inactive)	> 100 µM (inactive)	> 100 µM (inactive)	> 100 µM (inactive)
CCC(C#N)NC(=O)NC(C#N)CC (stereo not drawn)	–	> 100 µM (inactive)	> 100 µM (inactive)	> 100 µM (inactive)	> 100 µM	31.7 µM (inactive)	28.5 µM (inactive)	> 100 µM (inactive)	> 100 µM (inactive)	> 100 µM (inactive)	> 100 µM (inactive)	> 100 µM (inactive)	> 100 µM (inactive)	> 100 µM (inactive)	33.6 µM (inactive)	> 100 µM (inactive)	> 100 µM (inactive)	> 100 µM (inactive)	91.8 µM (inactive)	> 100 µM (inactive)
CC(C)(C)C1=C(Br)C(C(C)(C)C)OP1(=O)O (stereo not drawn)	> 100 µM (inactive)	> 100 µM (inactive)	> 100 µM (inactive)	> 100 µM (inactive)	> 100 µM	> 100 µM (inactive)	–	> 100 µM (inactive)	> 100 µM (inactive)	> 100 µM (inactive)	> 100 µM (inactive)	> 100 µM (inactive)	> 100 µM (inactive)	> 100 µM (inactive)	> 100 µM (inactive)	> 100 µM (inactive)	> 100 µM (inactive)	> 100 µM (inactive)	> 100 µM (inactive)	> 100 µM (inactive)
C=C1CC(Cn2cc(C)c(=O)[nH]c2=O)(c2ccc(Cl)cc2)OC1=O (stereo not drawn)	10.7 µM (inactive)	3.83 µM (inactive)	1.83 µM (inactive)	23.1 µM (inactive)	0.867 µM	0.438 µM (active)	0.94 µM (active)	6.58 µM (inactive)	0.863 µM (active)	3.98 µM (inactive)	3.64 µM (inactive)	9.64 µM (inactive)	1.22 µM (inactive)	2.08 µM (inactive)	1.72 µM (inactive)	15.8 µM (inactive)	0.594 µM (active)	17.1 µM (inactive)	3.08 µM (inactive)	3.3 µM (inactive)
Cc1cn([C@H]2C[C@](C)(CO)N(C)O2)c(=O)[nH]c1=O	> 100 µM (inactive)	> 100 µM (inactive)	> 100 µM (inactive)	> 100 µM (inactive)	–	> 100 µM (inactive)	> 100 µM (inactive)	> 100 µM (inactive)	> 100 µM (inactive)	> 100 µM (inactive)	–	> 100 µM (inactive)	> 100 µM (inactive)	> 100 µM (inactive)	> 100 µM (inactive)	> 100 µM (inactive)	> 100 µM (inactive)	> 100 µM (inactive)	> 100 µM (inactive)	> 100 µM (inactive)
O=C1CSC2(CC(/C=C/c3cccs3)=NN2c2cccc(S(=O)(=O)O)c2)N1c1nc2ccccc2s1 (stereo not drawn)	> 100 µM (inactive)	68.9 µM (inactive)	> 100 µM (inactive)	> 100 µM (inactive)	> 100 µM	41.2 µM (inactive)	35.7 µM (inactive)	> 100 µM (inactive)	> 100 µM (inactive)	> 100 µM (inactive)	> 100 µM (inactive)	–	> 100 µM (inactive)	21 µM (inactive)	> 100 µM (inactive)	67.5 µM (inactive)	64.9 µM (inactive)	> 100 µM (inactive)	> 100 µM (inactive)	42.7 µM (inactive)
Cc1ccc(/C=C2\N=C(N3CCOCC3)NC2=O)cc1	> 100 µM (inactive)	> 100 µM (inactive)	> 100 µM (inactive)	> 100 µM (inactive)	> 100 µM	> 100 µM (inactive)	> 100 µM (inactive)	> 100 µM (inactive)	> 100 µM (inactive)	> 100 µM (inactive)	> 100 µM (inactive)	> 100 µM (inactive)	> 100 µM (inactive)	> 100 µM (inactive)	> 100 µM (inactive)	–	> 100 µM (inactive)	> 100 µM (inactive)	> 100 µM (inactive)	> 100 µM (inactive)
O=c1[nH]c2cc(F)c(F)cc2nc1Cc1ccccc1	> 100 µM (inactive)	> 100 µM (inactive)	> 100 µM (inactive)	> 100 µM (inactive)	> 100 µM	> 100 µM (inactive)	16.1 µM (inactive)	> 100 µM (inactive)	> 100 µM (inactive)	> 100 µM (inactive)	> 100 µM (inactive)	> 100 µM (inactive)	> 100 µM (inactive)	> 100 µM (inactive)	> 100 µM (inactive)	> 100 µM (inactive)	–	> 100 µM (inactive)	> 100 µM (inactive)	> 100 µM (inactive)
O=C1NC(N2CCCCC2)=N/C1=C\c1ccco1	–	> 100 µM (inactive)	> 100 µM (inactive)	> 100 µM (inactive)	> 100 µM	> 100 µM (inactive)	> 100 µM (inactive)	> 100 µM (inactive)	> 100 µM (inactive)	> 100 µM (inactive)	> 100 µM (inactive)	> 100 µM (inactive)	> 100 µM (inactive)	> 100 µM (inactive)	> 100 µM (inactive)	–	> 100 µM (inactive)	> 100 µM (inactive)	> 100 µM (inactive)	> 100 µM (inactive)
O=[N+]([O-])c1cc2c([N+](=O)[O-])cccc2o1	–	3.34 µM (inactive)	2.22 µM (inactive)	19.2 µM (inactive)	4.59 µM	17.4 µM (inactive)	–	13.1 µM (inactive)	–	14.3 µM (inactive)	17 µM (inactive)	22.9 µM (inactive)	10.2 µM (inactive)	6.7 µM (inactive)	1.58 µM (inactive)	> 100 µM (inactive)	0.479 µM (active)	15.7 µM (inactive)	12.4 µM (inactive)	15.8 µM (inactive)
O=C(O)c1ccc2nc(-c3ccccn3)c(-c3ccccn3)nc2c1	> 100 µM (inactive)	> 100 µM (inactive)	> 100 µM (inactive)	> 100 µM (inactive)	> 100 µM	> 100 µM (inactive)	> 100 µM (inactive)	> 100 µM (inactive)	> 100 µM (inactive)	> 100 µM (inactive)	> 100 µM (inactive)	> 100 µM (inactive)	> 100 µM (inactive)	> 100 µM (inactive)	> 100 µM (inactive)	> 100 µM (inactive)	–	> 100 µM (inactive)	> 100 µM (inactive)	> 100 µM (inactive)
CC(C)(C)OC(=O)NCC(=O)NC1CC=CCC1NC(=O)CNC(=O)OC(C)(C)C (stereo not drawn)	> 100 µM (inactive)	> 100 µM (inactive)	> 100 µM (inactive)	> 100 µM (inactive)	> 100 µM	> 100 µM (inactive)	> 100 µM (inactive)	> 100 µM (inactive)	> 100 µM (inactive)	> 100 µM (inactive)	> 100 µM (inactive)	> 100 µM (inactive)	–	> 100 µM (inactive)	> 100 µM (inactive)	> 100 µM (inactive)	> 100 µM (inactive)	> 100 µM (inactive)	> 100 µM (inactive)	> 100 µM (inactive)
N#CCc1nc(-c2cc3c(ccc4ccccc43)oc2=O)cs1	0.507 µM (active)	27.5 µM (inactive)	50.1 µM (inactive)	19.1 µM (inactive)	69.3 µM	20.3 µM (inactive)	> 100 µM (inactive)	20.3 µM (inactive)	> 100 µM (inactive)	23 µM (inactive)	28.5 µM (inactive)	26.7 µM (inactive)	99.1 µM (inactive)	27.8 µM (inactive)	24.3 µM (inactive)	43.1 µM (inactive)	13 µM (inactive)	31.6 µM (inactive)	65.5 µM (inactive)	–
